The values that follow come from a melting point compilation (Tetko et al.; mined from patent text by program, amines drawn as free bases though some values may be those of a salt).

`Cc1ccc(S(=O)(=O)OCC2COc3ccc4c(=O)ccoc4c3O2)cc1` (stereo not given) came in with a melting point of 190 to 191 °C.
Then `c1ccc2c(c1)C1(CO1)c1ccccc1C21CO1` (stereo not given), with 119 to 121 °C.
Turning to `O=C(O)Cc1cnc(Cc2ccc(NC(=O)c3ccc(C(F)(F)F)cc3)cc2)n2ccnc12`, the melting point was 205 to 207 °C.
The result for `O=C([C@H]1CC[C@H](Nc2ncc3ncnc(Nc4ccc(F)c(Cl)c4)c3n2)CC1)N1CCOCC1` reads 221 to 225 °C; that for `COc1cc(/C=C/C(=O)CC(=O)CC(C)(C)C)ccc1O`, 130 to 132 °C; that for `CC(C)(Cc1ccccc1)C(=O)C(Cc1ccccc1)n1cncn1` (stereo not given), 45 to 50 °C.
Turning to `CC(C)Oc1n[nH]c(=O)n1C1CC1`, the melting point lay in the range of 146 to 147 °C.
Then `Nc1c(SC(F)(F)F)ncn1-c1c(Cl)cc(C(F)(F)F)cc1Cl`, with 134 °C.
The result for `COC(=O)[C@@H](CCCc1ccc(OCc2nc(-c3ccco3)oc2C)c(OC)c1)OC(N)=O` reads 110 to 111 °C; that for `CS(=O)(=O)Nc1cc2occ(C(N)=O)c(=O)c2cc1Oc1ccccc1F`, 249 to 251 °C.
Compound `Cc1ccn2c(-c3ccnc(-c4ccc(CN5CCOCC5)cc4)c3)c(-c3cccc(C)n3)nc2c1` returned a melting point of 188 °C.
Then `Cc1c(Br)c2ccccn2c1C(=O)c1ccc(N)c(C(=O)O)c1`, with 230 °C; and `O=C(C1CC=CCC1)N1c2ccccc2CCC1CN1CCN(c2cccc3[nH]ccc23)CC1` (stereo not given), with 156 to 160 °C.
The result for `COc1ccc(C(=O)C2C(Cl)=CC=CC2(C)Cl)cc1Br` (stereo not given) reads 159 °C.
`COCOc1cc(CO)ccc1OCc1nc(-c2ccco2)oc1C` yielded a melting point of 92 to 93 °C.
Then `COc1cc(N2CCN(c3c(C)c(C)c4c(c3C)CC(C)(C)O4)CC2)ccc1F`, with 152 to 155 °C.
The result for `O=C1OC(=O)C(c2ccc(C(=O)O)cc2)=C1c1ccccc1` reads 247 to 249 °C; that for `c1ccc(Oc2ccc(OCCCn3ccnc3)cc2)cc1`, 54.5 to 55.5 °C; that for `CCNc1ncnc2c1ncn2Cc1c(F)cccc1Cl`, 175 to 176 °C.
The result for `O=C1c2cc(Cl)ccc2C(O)N1c1ccc2ccc(Cl)nc2n1` (stereo not given) reads 295 to 297 °C; that for `O=C(OCCCCc1ccc2[nH]c(=O)oc2c1)C(F)(F)F`, 100 to 103 °C; that for `Clc1cc(CCc2ccccn2)c2oc(-c3nccc4ccccc34)nc2c1`, 142 to 143 °C.
As to `COc1ccc(Nc2ncnc3occ(C)c23)cc1`, the melting point lay within 99 to 102 °C.
`CC(C)(C)c1cc(C=O)c2c(c1O)CCC2`: the melting point is 213 to 214 °C.
The compound `CN1CCC(C)(c2nc(-c3ccncc3)c(-c3ccc(F)cc3)[nH]2)CC1` registered a melting point of 227 to 229 °C.
Then `CCOC(=O)c1ccc2c(c1)C(c1ccc(O)cc1)(c1ccc(O)cc1)c1ccccc1-2`, with 280 °C.
The result for `COc1ccc(C(=O)NCCBr)c([N+](=O)[O-])c1` reads 134 °C.
The result for `CCOC(=O)C1=C(NC(C)=O)Oc2cc(O)ccc2C1c1cnc2ccccc2c1` (stereo not given) reads 248 to 251 °C; that for `CC(=O)Nc1c(-c2ccc(Cl)cc2)c2ccccc2n1C`, 196 to 197 °C; that for `COc1ccc(/C=C/S(=O)(=O)CS(=O)(=O)/C=C/c2ccc(O)c(OC)c2)cc1O`, 148 to 150 °C.
On to `COC(=O)CCCCCCCNC(=O)C(COS(C)(=O)=O)NS(=O)(=O)c1ccc(Cl)cc1` (racemic), for which the melting point was 90 to 95 °C.
Then `O=CN1CCN(c2ncc3c(=O)c(C(=O)O)c[nH]c3n2)CC1`, with more than 300 °C; and `CCCCc1nccn1-c1nc(Cl)nc2nc[nH]c12`, with 247 to 248 °C; and `CN(CC(=O)[C@H](Cc1ccccc1)NC(=O)N1CCOCC1)C(=O)N1CCC[C@H]1C(=O)O`, with 75 to 90 °C.
The result for `CCCN(CCC)C(=O)C(C)Oc1nc(-c2ccccc2)nc2c1CCCC2` (stereo not given) reads 73 to 74 °C; that for `CC(Cl)c1nc2c(c(=O)n(C)c(=O)n2C)n1C` (stereo not given), 190 °C.
Then `Cn1cc(C(=O)NCc2ccc(Cl)cc2)c(=O)c2cc(CN3CCOCC3)cc(C#CCN3CCC(O)CC3)c21`, with 180 to 183 °C; and `O=C(NCc1ccc(Cl)cc1)c1cc(Cl)c2cccnc2c1O`, with 163 to 166 °C.
`O=C(O)c1ccc(N2C(=O)c3ccc([N+](=O)[O-])cc3C2=O)cc1` gave a melting point of 331 to 332 °C.
The result for `COc1cc2c(N3CCN(C(=O)Nc4ccc(Oc5ccccc5)cc4)CC3)ncnc2cc1OC(C)C` reads 157 to 160 °C; that for `Nc1nc2ccc(NC(=O)CNC(=O)[C@@H](Cc3ccccc3)NS(=O)(=O)Cc3ccccc3)cc2s1`, 127 to 130 °C; that for `O=C(O)CCCCc1c[nH]c2ccc(F)cc12`, 86 to 92 °C.
The result for `CC[C@H](N)c1nc2c(C(F)(F)F)cccc2c(O)c1C(=O)Nc1nccs1` reads 206 °C; that for `CCOC(=O)CCCC(CNC(=O)OC(C)(C)C)c1ccccc1` (stereo not given), 82 to 84 °C; that for `COC(=O)c1cc(C(=O)NN2CCCCC2)c2cc(Cc3ccc(F)cc3)cnc2c1O`, 233 to 234 °C.
Compound `CCCC1Sc2c(cc(OC)c(Cl)c2Cl)C1O` (stereo not given) had a melting point of 119 to 120 °C.
`O=C1c2ccccc2C(=O)N1C(O)C1OC(n2ccc(=O)[nH]c2=O)CC1O` (stereo not given) gave a melting point of 241 to 242 °C.
Then `CC(C)OC(=O)N1CCC(c2ccc3oc(-c4ccc(S(C)(=O)=O)cc4F)nc3c2)CC1`, with 151 to 156 °C; and `CC(C)C=C(C=NO)c1ccccc1`, with 107 to 110 °C; and `CCc1nc2ccccc2c(=O)n1-c1ccc(F)cc1`, with 178 °C.
Then `CCCC(=O)Nc1cccc(N(CCO)CCO)c1`, with 88 to 90 °C; and `Cc1cc(N(C)C)ccc1C=O`, with 66 to 67 °C.
The result for `O=C(O)CCc1cc(-c2ccccc2)nn1Cc1ccc(Cl)cc1Cl` reads 160 to 161 °C.
Take `COc1ccc(NCCCOc2ccc3cc(OCCCNc4ccc(OC)cc4)ccc3c2)cc1`: the melting point is 129 °C.
Then `CN(C)S(=O)(=O)n1c(C(=S)NC(=O)NS(=O)(=O)c2ccccc2Cl)nc2cc(Cl)c(Cl)cc21`, with 131 to 132 °C; and `O=C(O)[C@H]1CC(=O)N(c2ccc(OCc3cccc(F)c3)cc2)C1`, with 157 °C.
In the case of `Cc1cn2cc(Cl)cc(Cl)c2n1`, the melting point was 156 to 158 °C.
On to `CN1Cc2c(C#Cc3ccccc3)ncn2-c2cccc(Cl)c2C1=O`, for which the melting point was in the range of 205 to 206 °C.
The result for `OCC(COc1noc2ccc(Cl)cc12)NC(c1ccccc1)(c1ccccc1)c1ccccc1` (stereo not given) reads 142 to 144 °C; that for `CNC(=O)N1N=C(c2ccc([N+](=O)[O-])cc2)c2cc(Br)ccc2CC1C` (stereo not given), 197 to 200 °C.
Regarding `COc1nc(C(Br)Br)c([N+](=O)[O-])cc1C`, the melting point is 58.7 to 61.2 °C.
Then `CSc1sc(-c2ccn(C)n2)c2c1C(=O)C(=CO)C(C)(C)C2`, with 145 to 148 °C.
The result for `CNc1ccccc1C(=O)Cc1nnn[nH]1` reads 199 to 201 °C; that for `CC#CC(=O)N[C@H]1CC[C@H](CCN2CCN(c3nccc4c3CCO4)CC2)CC1`, 193 °C.
The result for `Cc1cc2nc(C)c(=O)[nH]c2cc1C` reads 306 to 308 °C; that for `CCNC(=O)c1ccc(N2CCN(Cc3cnc4c(c3)[nH]c(=O)n3cccc43)CC2)cc1`, 252 to 260 °C.
Take `CN(C)CCOC(=O)c1cc2cccc(O)c2[nH]1`: the melting point fell in the range of 149 to 152 °C.
The result for `CON=C(C)c1cc(-c2ccc(S(C)(=O)=O)cc2)c(-c2ccc(F)cc2)s1` reads 200 to 203 °C.
The result for `Cn1cncc1C(c1cccs1)c1cccs1` reads 78.5 to 80 °C; that for `COC(=O)c1ccc2c(c1)C(C(=O)O)c1ccccc1CO2` (stereo not given), 223 to 224 °C.
Then `CNC(=O)Cc1ccc2c(c1)Cc1c-2[nH]c(=O)c2nccn12`, with more than 260 °C; and `Cc1c2c(cc3c(=O)c4ccccc4oc13)CC(CO)O2` (stereo not given), with 242 to 243 °C; and `N=C(NC(=O)OCc1ccccc1)NC(=O)OCc1ccccc1`, with 149 to 150 °C.
Turning to `CC1(C)CCC(C)(C)c2cc(C(=O)SCc3ccc(C(=O)O)cc3)ccc21`, the melting point is 150 to 151 °C.
Then `C=Cn1nc(-c2ccc(OC)cc2)cc(C(=O)NC)c1=O`, with 130 to 133 °C; and `OC(CNCCNc1ccc2[nH]ncc2c1)COc1ccccc1` (stereo not given), with 150 to 165 °C; and `Cc1noc(C)c1C(=O)N1CCC2(CC1)CSC1=C(O2)c2ccccc2C(=O)C1=O`, with 274 to 275 °C.
The result for `O=S(=O)(c1ccccc1)n1ccnc1` reads 82 to 83 °C; that for `CNC(=O)Oc1ccccc1Cl`, 90 to 91 °C.
Take `CCCN(CCCCNc1ncc(Cc2ccnc(O)c2)c(=O)[nH]1)c1ccccn1`: the melting point fell in the range of 138 to 140 °C.
Consider `Fc1ccc(-c2nnc(S)nc2-c2ccc(F)cc2)cc1`, for which the melting point fell in the range of 180 to 182 °C.
For `CS(=O)(=O)NCCn1c(CCO)nc2c(N)nc3cccnc3c21`, the melting point lay in the range of 136 to 138 °C.
The result for `CCC1(C2CCN(c3ncnc4cc(OC)c(OC)cc34)CC2)CO1` (stereo not given) reads 138 to 139 °C; that for `Cc1c(-c2ccccc2)[nH]c(=O)n1C1CCN(Cc2cccc(I)c2)CC1`, 269 to 271 °C.
As for `COc1cc(Nc2c(C#N)cnc3cc(-c4cccc(CCN5CCOCC5)c4)c(OC)cc23)c(Cl)cc1Cl`, the melting point lay within 193 to 195 °C.
Then `CCOC(=O)Cn1nc2ccc(Cl)nn2c1=O`, with 114 to 115 °C; and `Cc1ccc(CCc2cc3c(s2)NC(=S)CN=C3c2ccccc2Cl)cc1`, with 190 to 191 °C; and `COc1ccccc1Oc1ccc(Br)cc1OC`, with 58 to 60 °C.
The result for `CNC(=S)C1=CC(C)(C)Oc2ccc([N+](=O)[O-])cc21` reads 147 to 148 °C; that for `COC(=O)Cc1ccc(O)c(NC(=O)c2c(C)c(OC)c(C)c(C)c2OC)c1`, 98 to 100 °C.
